pIC50: −log10 of the molar value.
Test system: NCI-H23 complex spheroids with HUVEC/MSC, viability
Assay: Anticancer human tumor NCI-H23 cell line growth inhibition [RAS];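 further: spheroids exposed to compound for 7 days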;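 on viability, T/C: 100% = DMSO vehicle control viability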
Settings: for pIC50: curve of first compound; for viability, T/C: stronger effect = lower value
Text: RAS pathway inhibitors in Combinations in Complex Spheroids
A high-throughput screen of multi-cell type tumor spheroids was designed to identify active combinations of RAS pathway inhibitors and targeted small molecules. Complex spheroids include a stromal component modeled by human endothelial cells (HUVEC) and fibroblasts modeled by human mesenchymal stem cells (MSCs). The concentration ranges selected for each drug and investigational agent were based upon clinically achievable concentrations if the clinical Cmax of the agent was known.
Compounds. The drugs and investigational agents: abemaciclib (NSC768073), cobimetinib (NSC768068), divarasib (GDC6063, NSC841802), docetaxel (NSC628503), GDC-1971 (RLY-1971, NSC841576), gemcitabine (NSC613327), inavolisib (NSC800729), ipatasertib (NSC767898), KB-0742 (NSC834161), MRTX-1133 (NSC836407), osimertinib (NSC779217), RMC-4630 (NSC839698), RMC-6236 (NSC851965), RMC-6291 (NSC852671), Ro-3306 (NSC812927), sapanisertib (NSC764658), SN-38 (NSC673596), staurosporine (NSC755774), SY5609 (NSC837396), and tovorafenib (DAY101, NSC766906), were obtained from the National Cancer Institute (NCI) Developmental Therapeutics Program Chemical Repository. The FDA-approved anticancer drug set is available from the NCI Developmental Therapeutics Program. […] The stock solutions were prepared in dimethyl sulfoxide (DMSO, Sigma-Aldrich, St. Louis, MO, cat. D2650) at 800-fold the tested concentration and stored at -70 degrees C prior to their use. All drugs and investigational agents were tested over a range starting from a high concentration at or near the clinical Cmax and decreasing in half-log increments. If the clinical Cmax for an agent had not been determined, the highest concentration tested was 10 microM.
Cell Culture. All cells were maintained in an incubator at 37 degrees C and 5% CO2 with 95% humidity. The PDC lines were cultured according to standard operating procedures established by the NCI PDMR. All PDCs were thawed and cultured in Matrigel-coated flasks prepared with a working solution of 1X Ham's F-12 nutrient mix, without supplementation (Invitrogen, Waltham, MA, cat. 11765054), 100 U/mL penicillin-streptomycin (Invitrogen, cat. 15140122), and 2.5% Matrigel (Corning Inc., Corning, NY, cat. 354248) for the first three passages. The 362531-283-R-J2-PDC and 782815-120-R-J1-PDC lines were cultured in 6C/Colon 1B media, which includes advanced DMEM/F-12 (Thermo Fisher Scientific, cat. 12634028), 10 mM HEPES (Thermo Fisher Scientific, cat. 15630080), 1X GlutaMAX supplement (Thermo Fisher Scientific, cat. 35050061), 0.1 mg/mL primocin (InvivoGen, San Diego, CA, cat. ant-pm-2), 10% defined fetal bovine serum, heat inactivated (HyClone Laboratories Inc., Logan, UT, cat. SH30070.03HI), 50% L-WRN conditioned media (ATCC, cat. CRL-3276), 1.25 mM N-Acetyl-L-cysteine (Sigma-Aldrich, cat. A9165), 10 mM nicotinamide (Sigma-Aldrich, cat. N0636), 1X B-27 supplement (Thermo Fisher Scientific, cat. 17504044), 1X N-2 supplement (Thermo Fisher Scientific, cat. 17502048), 50 ng/mL human EGF (Thermo Fisher Scientific, cat. PHG0311), and 10 microM Y-27632 dihydrochloride (Tocris Bioscience, cat. 1254). The K12877-001-R-J1-PDC line was cultured in 6I media, which includes all 6C/Colon 1B media plus 10 ng/mL human FGF-10 (PeproTech, cat. 100-26), 1 ng/mL human FGF-2 (PeproTech, cat. 100-18B), 1 µM prostaglandin E2 (Tocris Bioscience, cat. 2296), […] hydrocortisone (Sigma-Aldrich, cat. H4001), and […] bovine insulin (Sigma-Aldrich, cat. I6634). The K86415-001-R-J1-PDC line was cultured in 6D media, which includes all 6C/Colon 1B media components minus the L-WRN conditioned media. The 485176-168-R4-J1-PDC was cultured in PANC media, which includes all 6C/Colon 1B media plus 100 ng/mL human FGF-10 (PeproTech, cat. 100-26), 500 nM SB-431542 (Selleckchem, cat. S1067), and 10 nM gastrin (Tocris Bioscience, cat. 3006). […]

CC(C)NCC(C(=O)N1CCN(c2ncnc3c2C(C)CC3O)CC1)c1ccc(Cl)cc1 (centres undefined) + C=CC(=O)N1CCN(c2nc(OCC3CCCN3C)nc3c(F)c(-c4nc(N)cc(C)c4C(F)(F)F)c(Cl)cc23)C(C)C1
pIC50 (second compound 0.00316 µM): 6.26 | pIC50 (second compound 0.01 µM): 7.07 | pIC50 (second compound 0.0316 µM): > 7.50 | pIC50 (second compound 0.1 µM): > 7.50 | pIC50 (second compound 0.316 µM): > 7.50 | pIC50 (second compound 1 µM): > 7.50 | viability, T/C (second compound 0.00316 µM, first compound 0.0316 µM): 57.1% | viability, T/C (second compound 0.00316 µM, first compound 0.1 µM): 67.7% | viability, T/C (second compound 0.00316 µM, first compound 0.316 µM): 51.7% | viability, T/C (second compound 0.00316 µM, first compound 1 µM): 45.4% | viability, T/C (second compound 0.00316 µM, first compound 3.16 µM): 33.4% | viability, T/C (second compound 0.00316 µM, first compound 10 µM): 29.2% | viability, T/C (second compound 0.01 µM, first compound 0.0316 µM): 52.5% | viability, T/C (second compound 0.01 µM, first compound 0.1 µM): 54.5% | viability, T/C (second compound 0.01 µM, first compound 0.316 µM): 39.5% | viability, T/C (second compound 0.01 µM, first compound 1 µM): 37% | viability, T/C (second compound 0.01 µM, first compound 3.16 µM): 28.4% | viability, T/C (second compound 0.01 µM, first compound 10 µM): 20% | viability, T/C (second compound 0.0316 µM, first compound 0.0316 µM): 39.1% | viability, T/C (second compound 0.0316 µM, first compound 0.1 µM): 48.1% | viability, T/C (second compound 0.0316 µM, first compound 0.316 µM): 31.2% | viability, T/C (second compound 0.0316 µM, first compound 1 µM): 30.2% | viability, T/C (second compound 0.0316 µM, first compound 3.16 µM): 24.3% | viability, T/C (second compound 0.0316 µM, first compound 10 µM): 16.9% | viability, T/C (second compound 0.1 µM, first compound 0.0316 µM): 39.3% | viability, T/C (second compound 0.1 µM, first compound 0.1 µM): 39.4% | viability, T/C (second compound 0.1 µM, first compound 0.316 µM): 29.9% | viability, T/C (second compound 0.1 µM, first compound 1 µM): 25.8% | viability, T/C (second compound 0.1 µM, first compound 3.16 µM): 20.2% | viability, T/C (second compound 0.1 µM, first compound 10 µM): 18.8% | viability, T/C (second compound 0.316 µM, first compound 0.0316 µM): 37% | viability, T/C (second compound 0.316 µM, first compound 0.1 µM): 34.2% | viability, T/C (second compound 0.316 µM, first compound 0.316 µM): 28.9% | viability, T/C (second compound 0.316 µM, first compound 1 µM): 23.1% | viability, T/C (second compound 0.316 µM, first compound 3.16 µM): 21.3% | viability, T/C (second compound 0.316 µM, first compound 10 µM): 17.9% | viability, T/C (second compound 1 µM, first compound 0.0316 µM): 34.9% | viability, T/C (second compound 1 µM, first compound 0.1 µM): 37.1% | viability, T/C (second compound 1 µM, first compound 0.316 µM): 34.2% | viability, T/C (second compound 1 µM, first compound 1 µM): 26.1% | viability, T/C (second compound 1 µM, first compound 3.16 µM): 23.3% | viability, T/C (second compound 1 µM, first compound 10 µM): 16.6%

C=CC(=O)N1CCN(c2nc(OCC3CCCN3C)nc3c(F)c(-c4nc(N)cc(C)c4C(F)(F)F)c(Cl)cc23)C(C)C1 (centres undefined) + CCn1c(-c2cccnc2C(C)OC)c2c3cc(ccc31)N1CCOC(CC(NC(=O)C(C(C)C)N(C)C(=O)C3(F)CCN(C(=O)C#CC(C)(C)N(C)C)CC3)C(=O)N3CCCC(N3)C(=O)OCC(C)(C)C2)C1
pIC50 (second compound 0.000949 µM): > 8.50 | pIC50 (second compound 0.003 µM): > 8.50 | pIC50 (second compound 0.00949 µM): > 8.50 | pIC50 (second compound 0.03 µM): > 8.50 | pIC50 (second compound 0.0949 µM): > 8.50 | pIC50 (second compound 0.3 µM): > 8.50 | viability, T/C (second compound 0.000949 µM, first compound 0.00316 µM): 34.7% | viability, T/C (second compound 0.000949 µM, first compound 0.01 µM): 35.5% | viability, T/C (second compound 0.000949 µM, first compound 0.0316 µM): 24.3% | viability, T/C (second compound 0.000949 µM, first compound 0.1 µM): 28.4% | viability, T/C (second compound 0.000949 µM, first compound 0.316 µM): 29.2% | viability, T/C (second compound 0.000949 µM, first compound 1 µM): 25.6% | viability, T/C (second compound 0.003 µM, first compound 0.00316 µM): 33.6% | viability, T/C (second compound 0.003 µM, first compound 0.01 µM): 28.5% | viability, T/C (second compound 0.003 µM, first compound 0.0316 µM): 25.6% | viability, T/C (second compound 0.003 µM, first compound 0.1 µM): 29.4% | viability, T/C (second compound 0.003 µM, first compound 0.316 µM): 31.5% | viability, T/C (second compound 0.003 µM, first compound 1 µM): 27.6% | viability, T/C (second compound 0.00949 µM, first compound 0.00316 µM): 26.8% | viability, T/C (second compound 0.00949 µM, first compound 0.01 µM): 26.7% | viability, T/C (second compound 0.00949 µM, first compound 0.0316 µM): 37.2% | viability, T/C (second compound 0.00949 µM, first compound 0.1 µM): 30.9% | viability, T/C (second compound 0.00949 µM, first compound 0.316 µM): 27.7% | viability, T/C (second compound 0.00949 µM, first compound 1 µM): 25.9% | viability, T/C (second compound 0.03 µM, first compound 0.00316 µM): 30.2% | viability, T/C (second compound 0.03 µM, first compound 0.01 µM): 30.5% | viability, T/C (second compound 0.03 µM, first compound 0.0316 µM): 35% | viability, T/C (second compound 0.03 µM, first compound 0.1 µM): 27.2% | viability, T/C (second compound 0.03 µM, first compound 0.316 µM): 27.1% | viability, T/C (second compound 0.03 µM, first compound 1 µM): 29.7% | viability, T/C (second compound 0.0949 µM, first compound 0.00316 µM): 28.5% | viability, T/C (second compound 0.0949 µM, first compound 0.01 µM): 31.4% | viability, T/C (second compound 0.0949 µM, first compound 0.0316 µM): 26.9% | viability, T/C (second compound 0.0949 µM, first compound 0.1 µM): 27.3% | viability, T/C (second compound 0.0949 µM, first compound 0.316 µM): 24.9% | viability, T/C (second compound 0.0949 µM, first compound 1 µM): 32.7% | viability, T/C (second compound 0.3 µM, first compound 0.00316 µM): 25.8% | viability, T/C (second compound 0.3 µM, first compound 0.01 µM): 30% | viability, T/C (second compound 0.3 µM, first compound 0.0316 µM): 24.4% | viability, T/C (second compound 0.3 µM, first compound 0.1 µM): 26.2% | viability, T/C (second compound 0.3 µM, first compound 0.316 µM): 26% | viability, T/C (second compound 0.3 µM, first compound 1 µM): 29.3%
